± gives the expanded uncertainty stated by the source.
Test: refractive index (other wavelength) (dimensionless); xn = mol fraction of the nth substance listed
Settings: 101 kPa, Liquid, Standard Abbe refractometry

**Q.** Which refractive index (313.15 K, Wavelength=589.3 nm, x1 = 0.5038) does the source give for c1ccc2c(c1)CCCC2 [1,2,3,4-tetrahydronaphthalene] + CCCCCCCCCCCC here?
**A.** 1.46372 ± 0.00074

**Q.** And the refractive index (313.15 K, Wavelength=589.3 nm, x1 = 0.6036)?
**A.** 1.47625 ± 0.00073

**Q.** And the refractive index (313.15 K, Wavelength=589.3 nm, x1 = 0.7032)?
**A.** 1.48857 ± 0.00074

**Q.** And the refractive index (313.15 K, Wavelength=589.3 nm, x1 = 0.8024)?
**A.** 1.50166 ± 0.00077

**Q.** What about the refractive index (313.15 K, Wavelength=589.3 nm, x1 = 0.9014) of the same compound?
**A.** 1.51623 ± 0.00074

**Q.** And the refractive index (313.15 K, Wavelength=633.2 nm, x1 = 0.1014)?
**A.** 1.42066 ± 0.00072

**Q.** And the refractive index (313.15 K, Wavelength=633.2 nm, x1 = 0.2024)?
**A.** 1.43026 ± 0.00073

**Q.** And the refractive index (313.15 K, Wavelength=633.2 nm, x1 = 0.3032)?
**A.** 1.43979 ± 0.00072

**Q.** What about the refractive index (313.15 K, Wavelength=633.2 nm, x1 = 0.4036) of the same compound?
**A.** 1.45075 ± 0.00075

**Q.** What about the refractive index (313.15 K, Wavelength=633.2 nm, x1 = 0.5038) of the same compound?
**A.** 1.46185 ± 0.00073

**Q.** What about the refractive index (313.15 K, Wavelength=633.2 nm, x1 = 0.6036) of the same compound?
**A.** 1.47398 ± 0.00073

**Q.** What about the refractive index (313.15 K, Wavelength=633.2 nm, x1 = 0.7032) of the same compound?
**A.** 1.48614 ± 0.00074

**Q.** And the refractive index (313.15 K, Wavelength=633.2 nm, x1 = 0.8024)?
**A.** 1.49928 ± 0.00074

**Q.** And the refractive index (313.15 K, Wavelength=633.2 nm, x1 = 0.9014)?
**A.** 1.51325 ± 0.00072

**Q.** What about the refractive index (313.15 K, Wavelength=657.2 nm, x1 = 0.1014) of the same compound?
**A.** 1.41998 ± 0.0007

**Q.** And the refractive index (313.15 K, Wavelength=657.2 nm, x1 = 0.2024)?
**A.** 1.42919 ± 0.00073

**Q.** What about the refractive index (313.15 K, Wavelength=657.2 nm, x1 = 0.3032) of the same compound?
**A.** 1.439 ± 0.00071

**Q.** And the refractive index (313.15 K, Wavelength=657.2 nm, x1 = 0.4036)?
**A.** 1.44965 ± 0.00074

**Q.** And the refractive index (313.15 K, Wavelength=657.2 nm, x1 = 0.5038)?
**A.** 1.46161 ± 0.00073

**Q.** What about the refractive index (313.15 K, Wavelength=657.2 nm, x1 = 0.6036) of the same compound?
**A.** 1.47245 ± 0.00075

**Q.** And the refractive index (313.15 K, Wavelength=657.2 nm, x1 = 0.7032)?
**A.** 1.48468 ± 0.00074

**Q.** And the refractive index (313.15 K, Wavelength=657.2 nm, x1 = 0.8024)?
**A.** 1.49759 ± 0.00076

**Q.** And the refractive index (313.15 K, Wavelength=657.2 nm, x1 = 0.9014)?
**A.** 1.51275 ± 0.00074

**Q.** And the refractive index (318.15 K, Wavelength=436.1 nm, x1 = 0.1014)?
**A.** 1.43001 ± 0.00072

**Q.** What about the refractive index (318.15 K, Wavelength=436.1 nm, x1 = 0.2024) of the same compound?
**A.** 1.44026 ± 0.00075

**Q.** And the refractive index (318.15 K, Wavelength=436.1 nm, x1 = 0.3032)?
**A.** 1.45084 ± 0.00071

**Q.** What about the refractive index (318.15 K, Wavelength=436.1 nm, x1 = 0.4036) of the same compound?
**A.** 1.46269 ± 0.00072

**Q.** And the refractive index (318.15 K, Wavelength=436.1 nm, x1 = 0.5038)?
**A.** 1.47578 ± 0.00077

**Q.** And the refractive index (318.15 K, Wavelength=436.1 nm, x1 = 0.6036)?
**A.** 1.48857 ± 0.00073

**Q.** And the refractive index (318.15 K, Wavelength=436.1 nm, x1 = 0.7032)?
**A.** 1.50241 ± 0.00075

**Q.** What about the refractive index (318.15 K, Wavelength=436.1 nm, x1 = 0.8024) of the same compound?
**A.** 1.51672 ± 0.00071

**Q.** What about the refractive index (318.15 K, Wavelength=436.1 nm, x1 = 0.9014) of the same compound?
**A.** 1.5331 ± 0.00075

**Q.** What about the refractive index (318.15 K, Wavelength=513.9 nm, x1 = 0.1014) of the same compound?
**A.** 1.42366 ± 0.00062

**Q.** And the refractive index (318.15 K, Wavelength=513.9 nm, x1 = 0.2024)?
**A.** 1.43333 ± 0.00065

**Q.** And the refractive index (318.15 K, Wavelength=513.9 nm, x1 = 0.3032)?
**A.** 1.44405 ± 0.00066

**Q.** What about the refractive index (318.15 K, Wavelength=513.9 nm, x1 = 0.4036) of the same compound?
**A.** 1.45487 ± 0.0007

**Q.** What about the refractive index (318.15 K, Wavelength=513.9 nm, x1 = 0.5038) of the same compound?
**A.** 1.46645 ± 0.00063

**Q.** And the refractive index (318.15 K, Wavelength=513.9 nm, x1 = 0.6036)?
**A.** 1.47929 ± 0.00067

**Q.** And the refractive index (318.15 K, Wavelength=513.9 nm, x1 = 0.7032)?
**A.** 1.49184 ± 0.00064

**Q.** What about the refractive index (318.15 K, Wavelength=513.9 nm, x1 = 0.8024) of the same compound?
**A.** 1.50571 ± 0.00065

**Q.** What about the refractive index (318.15 K, Wavelength=513.9 nm, x1 = 0.9014) of the same compound?
**A.** 1.52083 ± 0.00059

**Q.** What about the refractive index (318.15 K, Wavelength=589.3 nm, x1 = 0.1014) of the same compound?
**A.** 1.42009 ± 0.00069

**Q.** What about the refractive index (318.15 K, Wavelength=589.3 nm, x1 = 0.2024) of the same compound?
**A.** 1.42933 ± 0.0007

**Q.** What about the refractive index (318.15 K, Wavelength=589.3 nm, x1 = 0.3032) of the same compound?
**A.** 1.43955 ± 0.00067

**Q.** What about the refractive index (318.15 K, Wavelength=589.3 nm, x1 = 0.4036) of the same compound?
**A.** 1.44985 ± 0.00069

**Q.** And the refractive index (318.15 K, Wavelength=589.3 nm, x1 = 0.5038)?
**A.** 1.46145 ± 0.00067

**Q.** What about the refractive index (318.15 K, Wavelength=589.3 nm, x1 = 0.6036) of the same compound?
**A.** 1.47389 ± 0.00072

**Q.** What about the refractive index (318.15 K, Wavelength=589.3 nm, x1 = 0.7032) of the same compound?
**A.** 1.48615 ± 0.0007

**Q.** And the refractive index (318.15 K, Wavelength=589.3 nm, x1 = 0.8024)?
**A.** 1.49906 ± 0.00068

**Q.** And the refractive index (318.15 K, Wavelength=589.3 nm, x1 = 0.9014)?
**A.** 1.51403 ± 0.00067

**Q.** And the refractive index (318.15 K, Wavelength=633.2 nm, x1 = 0.1014)?
**A.** 1.41859 ± 0.00068

**Q.** What about the refractive index (318.15 K, Wavelength=633.2 nm, x1 = 0.2024) of the same compound?
**A.** 1.42777 ± 0.00073

**Q.** What about the refractive index (318.15 K, Wavelength=633.2 nm, x1 = 0.3032) of the same compound?
**A.** 1.43785 ± 0.00068

**Q.** And the refractive index (318.15 K, Wavelength=633.2 nm, x1 = 0.4036)?
**A.** 1.44826 ± 0.00073

**Q.** What about the refractive index (318.15 K, Wavelength=633.2 nm, x1 = 0.5038) of the same compound?
**A.** 1.45981 ± 0.00068

**Q.** What about the refractive index (318.15 K, Wavelength=633.2 nm, x1 = 0.6036) of the same compound?
**A.** 1.47165 ± 0.00073

**Q.** And the refractive index (318.15 K, Wavelength=633.2 nm, x1 = 0.7032)?
**A.** 1.48389 ± 0.00073

**Q.** And the refractive index (318.15 K, Wavelength=633.2 nm, x1 = 0.8024)?
**A.** 1.49667 ± 0.00073

**Q.** And the refractive index (318.15 K, Wavelength=633.2 nm, x1 = 0.9014)?
**A.** 1.51123 ± 0.00066

**Q.** And the refractive index (318.15 K, Wavelength=657.2 nm, x1 = 0.1014)?
**A.** 1.41814 ± 0.00068

**Q.** What about the refractive index (318.15 K, Wavelength=657.2 nm, x1 = 0.2024) of the same compound?
**A.** 1.42702 ± 0.00067

**Q.** What about the refractive index (318.15 K, Wavelength=657.2 nm, x1 = 0.3032) of the same compound?
**A.** 1.43701 ± 0.00068

**Q.** And the refractive index (318.15 K, Wavelength=657.2 nm, x1 = 0.4036)?
**A.** 1.44718 ± 0.00067

**Q.** What about the refractive index (318.15 K, Wavelength=657.2 nm, x1 = 0.5038) of the same compound?
**A.** 1.45934 ± 0.00079

**Q.** What about the refractive index (318.15 K, Wavelength=657.2 nm, x1 = 0.6036) of the same compound?
**A.** 1.47014 ± 0.00068

**Q.** And the refractive index (318.15 K, Wavelength=657.2 nm, x1 = 0.7032)?
**A.** 1.48216 ± 0.00072

**Q.** And the refractive index (318.15 K, Wavelength=657.2 nm, x1 = 0.8024)?
**A.** 1.49507 ± 0.00066

**Q.** What about the refractive index (318.15 K, Wavelength=657.2 nm, x1 = 0.9014) of the same compound?
**A.** 1.51044 ± 0.00073

— the NIST ThermoML archive (doi:10.1021/acs.jced.5b00251)
